The text below walks through data of ChEMBL document CHEMBL5291721, “A preclinical secondary pharmacology resource illuminates target-adverse drug reaction associations of marketed drugs” (Nat Commun, 2023).

One assay has as its target Mu-type opioid receptor (Homo sapiens, UniProt P35372).
Assay [1] has as its target T1, Alpha-1A adrenergic receptor (Homo sapiens, UniProt P35348).
T1 sequence (P35348 whole entry): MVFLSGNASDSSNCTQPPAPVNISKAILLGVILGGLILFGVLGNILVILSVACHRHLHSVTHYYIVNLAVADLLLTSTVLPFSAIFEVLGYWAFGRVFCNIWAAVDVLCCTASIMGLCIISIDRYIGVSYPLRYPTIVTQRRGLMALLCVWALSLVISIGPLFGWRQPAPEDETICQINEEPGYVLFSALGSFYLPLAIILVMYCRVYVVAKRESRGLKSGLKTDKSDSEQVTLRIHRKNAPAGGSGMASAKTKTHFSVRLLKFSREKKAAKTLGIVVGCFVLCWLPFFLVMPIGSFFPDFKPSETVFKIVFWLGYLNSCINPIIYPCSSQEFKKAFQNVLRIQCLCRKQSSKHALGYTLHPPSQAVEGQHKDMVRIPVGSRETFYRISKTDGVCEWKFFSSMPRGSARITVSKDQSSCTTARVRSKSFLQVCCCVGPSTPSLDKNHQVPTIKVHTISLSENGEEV

The next assay concerns the target T2, Androgen receptor (Rattus norvegicus, UniProt P15207).
T2 sequence (P15207 whole entry): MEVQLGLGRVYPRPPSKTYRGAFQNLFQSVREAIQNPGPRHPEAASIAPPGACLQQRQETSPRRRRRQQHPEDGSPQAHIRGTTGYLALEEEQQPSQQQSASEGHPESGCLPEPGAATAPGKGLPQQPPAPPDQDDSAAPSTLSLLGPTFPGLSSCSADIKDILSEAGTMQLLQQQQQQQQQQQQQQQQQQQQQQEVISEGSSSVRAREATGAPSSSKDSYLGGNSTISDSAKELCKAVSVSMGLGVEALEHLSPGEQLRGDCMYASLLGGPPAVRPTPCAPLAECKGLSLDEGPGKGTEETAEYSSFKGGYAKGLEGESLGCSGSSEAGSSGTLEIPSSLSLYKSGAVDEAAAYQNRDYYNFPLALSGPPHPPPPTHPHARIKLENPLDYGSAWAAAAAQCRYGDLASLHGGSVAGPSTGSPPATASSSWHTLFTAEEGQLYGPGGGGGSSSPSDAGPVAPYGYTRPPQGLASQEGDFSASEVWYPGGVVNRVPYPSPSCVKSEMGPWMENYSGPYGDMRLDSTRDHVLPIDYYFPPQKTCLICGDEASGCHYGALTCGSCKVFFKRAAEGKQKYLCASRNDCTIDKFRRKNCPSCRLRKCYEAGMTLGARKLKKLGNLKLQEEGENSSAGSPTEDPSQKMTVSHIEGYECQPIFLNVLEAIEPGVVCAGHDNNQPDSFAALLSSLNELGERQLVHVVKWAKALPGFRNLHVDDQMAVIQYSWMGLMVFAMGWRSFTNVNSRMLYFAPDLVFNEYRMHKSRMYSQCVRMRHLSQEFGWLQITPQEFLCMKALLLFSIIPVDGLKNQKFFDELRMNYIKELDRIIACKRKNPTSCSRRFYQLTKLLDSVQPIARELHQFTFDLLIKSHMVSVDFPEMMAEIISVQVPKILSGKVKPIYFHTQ
Format: functional.

Another assay deals with T3, B2 bradykinin receptor (Homo sapiens, UniProt P30411).
T3 sequence (P30411 whole entry): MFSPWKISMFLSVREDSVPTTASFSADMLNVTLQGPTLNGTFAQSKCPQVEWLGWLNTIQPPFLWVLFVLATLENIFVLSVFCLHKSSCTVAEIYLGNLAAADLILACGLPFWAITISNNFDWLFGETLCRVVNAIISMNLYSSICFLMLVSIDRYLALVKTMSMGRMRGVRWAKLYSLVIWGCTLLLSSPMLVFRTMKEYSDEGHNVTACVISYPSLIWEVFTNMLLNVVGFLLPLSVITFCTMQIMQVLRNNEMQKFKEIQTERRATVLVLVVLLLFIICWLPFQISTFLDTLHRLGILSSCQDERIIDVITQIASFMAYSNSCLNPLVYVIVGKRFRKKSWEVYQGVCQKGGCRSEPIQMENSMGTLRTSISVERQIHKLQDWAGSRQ

Assay [2] has as its target T4, D(1A) dopamine receptor (Homo sapiens, UniProt P21728). Format: functional, cell-based.
Assay [3] addresses Growth hormone secretagogue receptor type 1 (Homo sapiens, UniProt Q92847).
For the next assay, the target named is Histamine H2 receptor (Homo sapiens, UniProt P25021). It counts as functional, cell-based.
Sequence of Histamine H2 receptor (P25021 whole entry): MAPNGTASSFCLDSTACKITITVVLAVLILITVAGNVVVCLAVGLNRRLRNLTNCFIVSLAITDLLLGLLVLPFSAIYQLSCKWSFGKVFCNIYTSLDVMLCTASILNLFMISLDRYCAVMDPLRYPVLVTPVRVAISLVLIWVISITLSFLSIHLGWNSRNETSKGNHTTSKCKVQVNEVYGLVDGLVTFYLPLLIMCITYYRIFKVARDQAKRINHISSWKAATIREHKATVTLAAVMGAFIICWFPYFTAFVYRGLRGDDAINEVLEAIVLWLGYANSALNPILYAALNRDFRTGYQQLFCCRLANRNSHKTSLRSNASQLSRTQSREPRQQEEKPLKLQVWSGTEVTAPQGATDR
The target in assay [4] is 5-hydroxytryptamine receptor 2B (Homo sapiens, UniProt P41595). Format: functional, cell-based.
Sequence of 5-hydroxytryptamine receptor 2B (P41595 whole entry): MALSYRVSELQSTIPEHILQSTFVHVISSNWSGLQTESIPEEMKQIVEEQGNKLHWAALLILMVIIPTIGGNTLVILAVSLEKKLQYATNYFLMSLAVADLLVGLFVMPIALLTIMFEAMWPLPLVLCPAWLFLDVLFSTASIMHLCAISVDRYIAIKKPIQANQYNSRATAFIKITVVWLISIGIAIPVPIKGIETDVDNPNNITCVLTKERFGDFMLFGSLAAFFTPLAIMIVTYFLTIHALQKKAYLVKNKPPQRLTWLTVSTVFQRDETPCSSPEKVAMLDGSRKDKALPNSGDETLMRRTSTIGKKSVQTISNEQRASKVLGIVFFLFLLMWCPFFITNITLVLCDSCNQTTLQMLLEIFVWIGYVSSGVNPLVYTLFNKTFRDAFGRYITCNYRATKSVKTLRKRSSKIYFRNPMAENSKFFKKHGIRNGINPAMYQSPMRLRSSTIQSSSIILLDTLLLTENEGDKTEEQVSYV
For assay [5], the target named is T5, Prostaglandin G/H synthase 1 (Rattus norvegicus, UniProt Q63921).
T5 sequence (Q63921 whole entry): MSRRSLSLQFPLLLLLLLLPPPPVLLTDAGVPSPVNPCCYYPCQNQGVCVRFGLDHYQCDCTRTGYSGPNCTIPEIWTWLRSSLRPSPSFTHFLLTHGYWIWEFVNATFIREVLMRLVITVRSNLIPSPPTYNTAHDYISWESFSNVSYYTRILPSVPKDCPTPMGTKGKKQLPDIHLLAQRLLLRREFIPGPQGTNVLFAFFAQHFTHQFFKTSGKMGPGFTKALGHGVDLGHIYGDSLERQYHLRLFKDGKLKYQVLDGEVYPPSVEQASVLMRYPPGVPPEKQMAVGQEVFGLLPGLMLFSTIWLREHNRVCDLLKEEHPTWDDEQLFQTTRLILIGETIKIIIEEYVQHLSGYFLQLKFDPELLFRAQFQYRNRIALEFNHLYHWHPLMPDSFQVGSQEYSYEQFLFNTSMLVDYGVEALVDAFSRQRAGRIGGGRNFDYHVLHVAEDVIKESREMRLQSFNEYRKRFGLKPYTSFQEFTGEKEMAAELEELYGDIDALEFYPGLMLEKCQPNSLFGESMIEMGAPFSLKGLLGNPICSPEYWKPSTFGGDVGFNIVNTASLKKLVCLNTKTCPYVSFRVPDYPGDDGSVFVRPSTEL
It counts as functional.

In assay [6] the target is Sodium-dependent noradrenaline transporter (Homo sapiens, UniProt P23975).
Sequence of Sodium-dependent noradrenaline transporter (P23975 whole entry): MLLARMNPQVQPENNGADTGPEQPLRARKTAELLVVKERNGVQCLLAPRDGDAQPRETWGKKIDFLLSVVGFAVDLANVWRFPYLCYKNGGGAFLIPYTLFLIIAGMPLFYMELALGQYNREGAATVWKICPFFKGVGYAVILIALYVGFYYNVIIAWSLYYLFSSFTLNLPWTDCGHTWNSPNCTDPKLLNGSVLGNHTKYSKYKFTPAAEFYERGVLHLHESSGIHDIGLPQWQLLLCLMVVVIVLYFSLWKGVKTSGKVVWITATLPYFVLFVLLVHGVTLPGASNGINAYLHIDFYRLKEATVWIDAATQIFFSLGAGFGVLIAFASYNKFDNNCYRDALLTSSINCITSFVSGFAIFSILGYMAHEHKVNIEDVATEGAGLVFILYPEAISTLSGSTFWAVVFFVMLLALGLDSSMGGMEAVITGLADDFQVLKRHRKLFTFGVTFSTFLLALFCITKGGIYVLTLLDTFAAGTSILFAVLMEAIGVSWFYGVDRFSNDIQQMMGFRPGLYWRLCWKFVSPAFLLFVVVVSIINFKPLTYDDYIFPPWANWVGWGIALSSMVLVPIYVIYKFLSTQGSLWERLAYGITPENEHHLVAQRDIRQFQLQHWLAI
The target of a further assay is D(3) dopamine receptor (Homo sapiens, UniProt P35462).
Sequence of D(3) dopamine receptor (P35462 whole entry): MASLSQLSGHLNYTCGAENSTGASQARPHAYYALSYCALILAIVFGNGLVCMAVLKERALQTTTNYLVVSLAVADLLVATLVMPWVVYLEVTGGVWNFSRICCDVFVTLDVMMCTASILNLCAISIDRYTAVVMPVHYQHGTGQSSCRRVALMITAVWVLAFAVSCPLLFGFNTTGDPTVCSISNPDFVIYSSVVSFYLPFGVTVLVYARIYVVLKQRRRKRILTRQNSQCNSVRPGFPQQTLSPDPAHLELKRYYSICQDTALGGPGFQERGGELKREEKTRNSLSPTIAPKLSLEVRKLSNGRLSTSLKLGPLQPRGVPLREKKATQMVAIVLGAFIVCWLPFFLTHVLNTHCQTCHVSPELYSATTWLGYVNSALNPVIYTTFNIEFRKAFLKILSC
Assay [7] addresses T4, D(1A) dopamine receptor.
Note: assay procedure not described here.

T4 sequence (P21728 whole entry): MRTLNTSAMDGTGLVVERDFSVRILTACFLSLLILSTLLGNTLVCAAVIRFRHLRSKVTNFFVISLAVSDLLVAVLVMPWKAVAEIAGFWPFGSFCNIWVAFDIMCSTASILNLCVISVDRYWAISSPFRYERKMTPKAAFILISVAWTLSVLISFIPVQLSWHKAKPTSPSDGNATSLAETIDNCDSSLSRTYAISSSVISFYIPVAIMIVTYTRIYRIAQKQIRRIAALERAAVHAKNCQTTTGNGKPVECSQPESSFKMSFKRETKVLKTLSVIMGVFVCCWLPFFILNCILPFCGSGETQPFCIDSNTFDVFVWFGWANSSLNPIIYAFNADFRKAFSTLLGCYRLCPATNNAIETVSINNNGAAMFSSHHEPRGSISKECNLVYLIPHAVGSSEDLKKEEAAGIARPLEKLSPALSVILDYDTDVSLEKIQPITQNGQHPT
Sequence of Growth hormone secretagogue receptor type 1 (Q92847 whole entry): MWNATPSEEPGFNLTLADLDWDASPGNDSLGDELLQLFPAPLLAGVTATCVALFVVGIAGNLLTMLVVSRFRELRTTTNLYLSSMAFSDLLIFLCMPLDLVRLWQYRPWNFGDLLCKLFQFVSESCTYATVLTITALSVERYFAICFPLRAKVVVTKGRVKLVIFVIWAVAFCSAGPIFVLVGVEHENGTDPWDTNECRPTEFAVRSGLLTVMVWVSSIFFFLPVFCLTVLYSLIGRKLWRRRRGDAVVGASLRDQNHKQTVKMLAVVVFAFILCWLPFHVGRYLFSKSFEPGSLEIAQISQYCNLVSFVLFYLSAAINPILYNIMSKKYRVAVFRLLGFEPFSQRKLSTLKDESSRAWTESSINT
Sequence of Mu-type opioid receptor (P35372 whole entry): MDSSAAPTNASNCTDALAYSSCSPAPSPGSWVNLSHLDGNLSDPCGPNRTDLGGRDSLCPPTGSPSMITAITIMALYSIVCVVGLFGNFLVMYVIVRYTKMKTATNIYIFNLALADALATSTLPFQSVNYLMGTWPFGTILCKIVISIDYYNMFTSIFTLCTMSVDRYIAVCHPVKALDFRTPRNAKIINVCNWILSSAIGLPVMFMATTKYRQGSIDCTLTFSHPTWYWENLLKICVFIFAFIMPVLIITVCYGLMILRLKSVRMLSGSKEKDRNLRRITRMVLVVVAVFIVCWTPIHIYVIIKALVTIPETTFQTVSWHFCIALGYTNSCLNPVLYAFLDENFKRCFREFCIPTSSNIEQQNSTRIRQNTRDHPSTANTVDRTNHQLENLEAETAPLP

A word on the AC50: it is the midpoint of the concentration-response curve, whichever way the signal moves. The low end stands for greater potency, the high end for weaker potency. On to `CN(C)c1ccc(C(=C2C=CC(=[N+](C)C)C=C2)c2ccc(N(C)C)cc2)cc1` [GENTIAN VIOLET], for which the AC50 on Mu-type opioid receptor was found to be 3.9 µM.

Turning to HYDROXOCOBALAMIN, the half-maximal activity concentration (AC50) (in assay [1]; at Androgen receptor; on B2 bradykinin receptor; on D(1A) dopamine receptor [2]; in assay [3]; at Histamine H2 receptor) was above 30 µM in each case. For the same compound, the AC50 was above 30 µM in assay [4], 0.003 µM in assay [5], above 30 µM in assay [6] and above 30 µM at D(3) dopamine receptor.

`Nc1ccc(S(N)(=O)=O)cc1` [SULFANILAMIDE] registered an AC50 on D(1A) dopamine receptor [7] above 30 µM.
